Here are results for one compound from paper PMC6027051, “Polymer–Surfactant System Based Amorphous Solid Dispersion: Precipitation Inhibition and Bioavailability Enhancement of Itraconazole” (Pharmaceutics, 2018).

In brackets after ≈: the same amount, converted by molar mass. Where two headings read alike, the source gives them in different places. Some results are limits rather than exact numbers.

Format in all cases: physicochemical
Data set [1] is described as follows: Equilibrium solubility of ITZ in SIF with or without surfactant (shaking flask method). To be noted: for solubility thermodynamic at 48 h: 37 °C, n = 3, read-out: ITZ Concentration in SIF (equilibrium solubility). The method, then: An excess amount of ITZ was added to SIF with or without pre-dissolved surfactant (1 mg/mL) and mixed by vortex for 2 min. After incubation in a shaking incubator at 37 °C for 48 h, the suspension was centrifuged (15,000 rpm for 10 min) and filtered through a 0.22 μm Millipore filter (Jinteng Experimental Equipment Co., Ltd, Tianjin, China). Prior to assay by high performance liquid (HPLC) (Shimadzu Corporation, Kyoto, Japan) using a PhenomenexC18 column (4.6 × 250 mm, 5 μm), the filtrate was diluted 1:1 with mobile phase. The mobile phase was consisted of 0.5% diisopropylamine in methanol and 0.1% ammonium acetate in distilled water (80:20) with a rate of 1.0 mL/min. The effluent was monitored at an ultraviolet-visible (UV) absorption wavelength of 263 nm. The retention time of ITZ under these conditions was 4.9 min. Calibration curve (Figure 1A) were linear over a concentration range of 0.04–40 μg/mL. The limit of quantitation (LOQ) and limit of detection (LOD) was 25 ng and 10 ng, respectively. Each equilibrium solubility test was performed in triplicate.

A short description of data set [2]: Supersaturation dissolution test with pH-shift (SGF to SIF, USP paddle method). The method, then: In order to simulate the drug peristalsis in vivo situation, a transfer of simulated gastric fluid (SGF) to SIF was conducted for in vitro dissolution experiment. Supersaturation dissolution tests were performed according to USP 29 Apparatus 2 guidelines (paddle method) with a ZRS-8G dissolution tester (TDTF, Tianjin, China). Briefly, samples containing equivalent amounts of ITZ (45 mg) were subjected to each dissolution vessel containing SGF (750 mL of 0.1 N HCl) for 2 h, followed by pH adjustment to 6.8 by the addition of 250 mL of 0.2 M tribasic sodium phosphate (Na3PO4) for additional 3 h. The dissolution media was kept at 37.0 ± 0.5 °C and the paddle speed was maintained at 100 rpm throughout the test procedure. Aliquot samples (5 mL) were withdrawn at predetermined time intervals (120, 125, 150, 180, 240, and 300 min). The samples were filtered through a […] millipore filter and the first few drops were discarded. The filtrate was immediately diluted with methanol to prevent the precipitation. The ITZ concentration was assayed by ultraviolet spectrophotometry (TU-1901, Beijing Purkinje General Instrument Co., Ltd., Beijing, China) at a wavelength of 263 nm. The calibration curve of ITZ in UV spectrophotometry was shown in Figure 1B with a concentration range of 0.25–80 μg/mL. […]

The nature of data set [3]: Nucleation induction time measurement (turbidity at 490 nm, plate reader) in SIF. To be noted: supersaturated ITZ solution by solvent shift (DMSO stock into SIF), absorbance 490 nm. On the procedure: Supersaturation stability is commonly evaluated by measuring the induction time for nucleation, which is defined as the time lag for the appearance of the observable crystals. In this study, the precipitation induction time of different formulations were obtained by determining the changes in turbidity using plate reader detection technique. Supersaturated ITZ solutions were prepared by the solvent shift method. All the samples were dissolved in dimethyl sulfoxide (DMSO) to obtain ITZ stock solution at a concentration of 1mg/mL, then the stock solution was added into SIF and stirred constantly to generate a supersaturated solution. Immediately, 300 μL of individual supersaturated solution was transferred into a 96-well polypropylene plate and the optical density value of each well was measured at 490 nm using plate reader (Bio-Tek, Winooski, VT, USA). […] Thus, the turbidity was the only contributor to the changed absorbance. The samples were also shaken before the measurement and each formulation was detected in triplicate. All the analyses and calculations were carried out using Gen 5.0 (Bio-Tek, Winooski, VT, USA).

For the compound `CCC(C)n1ncn(-c2ccc(N3CCN(c4ccc(OCC5COC(Cn6cncn6)(c6ccc(Cl)cc6Cl)O5)cc4)CC3)cc2)c1=O` (centres unmarked) [ITZ, Itraconazole], the solubility thermodynamic at 48 h in data set [1] (SIF with Poloxamer 188 1 mg/mL, pH 6.8, SIF pH 6.8 with Poloxamer 188 1 mg/mL) amounted to 0.92 ± 0.27 µg/mL (≈ 1.3 µM); in data set [1] (SIF with SDS 1 mg/mL, pH 6.8, SIF pH 6.8 with SDS 1 mg/mL), 1.66 ± 0.53 µg/mL (≈ 2.35 µM); in data set [1] (SIF with Soluplus 1 mg/mL, pH 6.8, SIF pH 6.8 with Soluplus 1 mg/mL), 0.1 ± 0.06 µg/mL (≈ 0.142 µM); in data set [1] (SIF with TPGS 1 mg/mL, pH 6.8, SIF pH 6.8 with TPGS 1 mg/mL) it was 4.83 ± 0.81 µg/mL (≈ 6.84 µM); in data set [1] (SIF with Tween 80 1 mg/mL, pH 6.8, aqueous with cosolvent or surfactant or cyclodextrin, thermodynamic from solid, SIF pH 6.8 with Tween 80 1 mg/mL), 0.03 ± 0.01 µg/mL (≈ 0.0425 µM); in data set [1] (SIF with sodium cholate 1 mg/mL, pH 6.8, aqueous with cosolvent or surfactant or cyclodextrin, thermodynamic from solid, SIF pH 6.8 with Sodium cholate 1 mg/mL), 0.07 ± 0.02 µg/mL (≈ 0.0992 µM). In addition, in data set [1] (simulated intestinal fluid (SIF) without surfactant, pH 6.8, fassgf or other biorelevant, thermodynamic from solid, SIF pH 6.8 without surfactant (Blank group)), the solubility thermodynamic at 48 h was ~0.008 µg/mL (≈ 0.0113 µM). The “Increase of equilibrium solubility in the presence of TPGS over SIF” value in data set [1] (SIF with TPGS vs SIF alone) was “approximately 580 fold”. Besides, the “ITZ released after 2 h in SGF” value in data set [2] (SGF (0.1 N HCl), 120 min, 37 °C, 45 mg ITZ) was 3%. In addition, in data set [2] (SIF pH 6.8, precipitation from five minutes after the pH change), the “Cumulative release amount after pH change to 6.8 (rapid precipitation, eventually dropped to)” value was < 1%. Besides, the “Turbidity / precipitation behaviour in the absorbance-time curve” value in data set [3] is “rapid increase in the absorbance followed by a gradual decline”.
